What is called CC50 is the concentration giving 50% cytotoxicity. Low readings indicate greater toxicity to the cells, high ones lower toxicity to the cells.

Structures are written as SMILES. Converted amounts (≈) assume the structure as drawn. Where only a bound is given, the exact number is not on record here.

The test system of assay [1] is Klebsiella pneumoniae. Description: microbe, parasite or virus in culture. Particulars: ATCC 700603, 18 h, ASSAY_TEST Inhibition of Bacterial Growth, detection method Absorption (OD600), MEDIA CAMHB, plate type 384well, NBS, CORNING #3640.
Description: Antibacterial activity against Klebsiella pneumoniae MDR ATCC 70063 (CO-ADD:GN_003); MIC in CAMBH media using NBS plates, by OD(600)
The test system of assay [2] is Cryptococcus neoformans.
Description: Antifungal activity against Cryptococcus neoformans H99 ATCC 208821 (CO-ADD:FG_002); MIC in YNB media using NBS plates, by Resazurin OD(600-570)
For assay [3], the system named is Escherichia coli. Description: microbe, parasite or virus in culture. Particulars: ATCC 25922, 18 h, ASSAY_TEST Inhibition of Bacterial Growth, detection method Absorption (OD600), MEDIA CAMHB, plate type 384well, NBS, CORNING #3640.
Description: Antibacterial activity against Escherichia coli ATCC 25922 (CO-ADD:GN_001); MIC in CAMBH media using NBS plates, by OD(600)
Assay [4] concerns HEK293. Description: cells. It counts as functional. Particulars: Homo sapiens, ATCC CRL1573, HEK293; ASSAY_TEST Inhibition of Cell Viability; detection method Resazurin; Fluorescence (ex560/em590); MEDIA DMEM with 10% FBS; plate type 384well; TC; CORNING #3712; time 18 hr. (Alamar Blue is a resazurin reagent that responds to reducing activity.)
Assay [5] deals with Staphylococcus aureus. Put plainly: microbe, parasite or virus in culture. The conditions noted are these: ATCC 43300, 18 h, ASSAY_TEST Inhibition of Bacterial Growth, detection method Absorption (OD600), MEDIA CAMHB, plate type 384well, NBS, CORNING #3640.
Description: Antibacterial activity against Staphylococcus aureus MRSA ATCC 43300 (CO-ADD:GP_020); MIC in CAMBH media, using NBS plates, by OD(600)
Assay [6] relates to Pseudomonas aeruginosa. Put plainly: microbe, parasite or virus in culture. Particulars: ATCC 27853, 18 h, ASSAY_TEST Inhibition of Bacterial Growth, detection method Absorption (OD600), MEDIA CAMHB, plate type 384well, NBS, CORNING #3640.
Description: Antibacterial activity against Pseudomonas aeruginosa ATCC 27853 (CO-ADD:GN_042); MIC in CAMBH media using NBS plates, by OD(600)
Assay [7] deals with Candida albicans. Put plainly: microbe, parasite or virus in culture. The conditions noted are these: ATCC 90028, ASSAY_TEST Inhibition of Fungal Growth, detection method Absorption (OD530), plate type 384well, NBS, CORNING #3640.
Description: Antifungal activity against Candida albicans ATCC 90028 (CO-ADD:FG_001); MIC in YNB media using NBS plates, by OD630
The test system of assay [8] is Acinetobacter baumannii. Put plainly: microbe, parasite or virus in culture. Particulars: ATCC 19606, 18 h, ASSAY_TEST Inhibition of Bacterial Growth, detection method Absorption (OD600), MEDIA CAMHB, plate type 384well, NBS, CORNING #3640.
Description: Antibacterial activity against Acinetobacter baumannii ATCC 19606 (CO-ADD:GN_034); MIC in CAMBH media using NBS plates, by OD600

Regarding `[O-][Cl+3]([O-])([O-])O.[O-][Cl+3]([O-])([O-])O.[Zn].c1ccc2c(-n3cc(CN4CCCNCCN(Cc5cn(-c6cccc7ccccc67)nn5)CCCNCC4)nn3)cccc2c1`, the MIC was above 32 µg/mL in assay [1]; 4 µg/mL in assay [2]; above 32 µg/mL in assay [3]; 4 µg/mL in assay [5]; above 32 µg/mL in assay [6]; above 32 µg/mL in assay [7]. The same compound had an MIC in assay [8] above 32 µg/mL. This compound also yielded a CC50 in assay [4] of 4.89 µg/mL.

On to `CCN1C(=O)c2cccc3c(-c4c[n+](CCN5CCCNCCN(CC[n+]6cc(COc7ccc8c(c7)CC[C@@H]7[C@@H]8CC[C@]8(C)C(=O)CC[C@@H]78)[nH]n6)CCCNCC5)n[nH]4)ccc(c23)C1=O.[O-][Cl+3]([O-])([O-])O.[O-][Cl+3]([O-])([O-])O.[Zn+2]`, for which the MIC in assay [1] is above 32 µg/mL; in assay [2] it was 32 µg/mL; in assay [3] it was above 32 µg/mL; in assay [5], 16 µg/mL; in assay [6], above 32 µg/mL; in assay [7], above 32 µg/mL. Moreover, the MIC in assay [8] was above 32 µg/mL. In assay [4], the CC50 is above 32 µg/mL.

With `Clc1ccc(-c2nnc3cncc(OCCc4ccccc4)n23)cc1`, the MIC was above 32 µg/mL in assay [1]; above 32 µg/mL in assay [2]; above 32 µg/mL in assay [3]; above 32 µg/mL in assay [5]; above 32 µg/mL in assay [6]; 0.5 µg/mL (≈ 1.43 µM) in assay [7]. In assay [8], this compound registered an MIC above 32 µg/mL. In assay [4], this compound showed a 50% cytotoxic concentration (CC50) of 21.7 µg/mL (≈ 61.9 µM).
